Results on 8 molecules are retold here after ChEMBL document CHEMBL1121778, “5,7-Dihydroxy-2-aminotetralin derivatives: synthesis and assessment of dopaminergic and adrenergic actions” (1981).

Calls of active or inactive are those of the source. No cut-off for these calls is given here.

Assay [1] relates to Felis catus. The experiment in a line: Change in heart rate(beats/min) of the cat on intravenous administration of 0.009 umol/kg of the compound. Format: functional.
For assay [2], the system named is Felis catus. The experiment in a line: Percentage change in arterial pressure of the cat on intravenous administration of 0.003 umol/kg of the compound. The format is functional, Artery.
In assay [3] the test system is Felis catus. The experiment in a line: Change in heart rate(beats/min) of the cat on intravenous administration of 0.003 umol/kg of the compound. The format is functional.
For assay [4], the species on record is Felis catus. The experiment in a line: Compound was tested for the inhibition of cat cardioaccelerator nerve stimulation. Format: functional.
Assay [5] relates to Canis familiaris. Briefly: Compound was tested for increase in renal blood flow in dog anesthetized with sodium pentobarbitol (30 mg/kg, iv) and systemic blood pressure and heart rate were recorded; Inactive at 2 umol/kg. The format is functional, organism-based. The conditions noted are these: Canis lupus familiaris.
The test system of assay [6] is Felis catus. Briefly: Change in heart rate(beats/min) of the cat on intravenous administration of 0.033 umol/kg of the compound. Format: functional.
Assay [7] is filed under the species Felis catus. Briefly: Potency relative to apomorphine. Format: functional.
In assay [8] the test system is Felis catus. The experiment in a line: Percentage change in arterial pressure of the cat on intravenous administration of 0.033 umol/kg of the compound. Format: functional, Artery.
For assay [9], the system named is Felis catus. The experiment in a line: Percentage change in arterial pressure of the cat on intravenous administration of 0.009 umol/kg of the compound. The format is functional, Artery.
Assay [10] concerns Felis catus. The experiment in a line: Percentage change in arterial pressure of the cat on intravenous administration of 0.01 umol/kg of the compound. Format: functional, Artery.
Assay [11] deals with Felis catus. The experiment in a line: Change in heart rate(beats/min) of the cat on intravenous administration of 0.01 umol/kg of the compound. The format is functional.
The subject of assay [12] is Felis catus. Briefly: Change in heart rate(beats/min) of the cat on intravenous administration of 0.03 umol/kg of the compound. Format: functional.
The test system of assay [13] is Felis catus. Briefly: Percentage change in arterial pressure of the cat on intravenous administration of 0.1 uM/kg of the compound. The format is functional, Artery.
Assay [14] deals with Felis catus. The experiment in a line: Percentage change in arterial pressure of the cat on intravenous administration of 0.03 umol/kg of the compound. Format: functional, Artery.
Assay [15] deals with Felis catus. The experiment in a line: Change in heart rate(beats/min) of the cat on intravenous administration of 0.1 uM/kg of the compound. The format is functional.
The subject of assay [16] is Felis catus. Briefly: Percentage change in arterial pressure of the cat on intravenous administration of 0.99 umol/kg of the compound. The format is functional, Artery.
For assay [17], the system named is Felis catus. Briefly: Change in heart rate(beats/min) of the cat on intravenous administration of 0.33 umol/kg of the compound. Format: functional.
Assay [18] relates to Felis catus. Briefly: Percentage change in arterial pressure of the cat on intravenous administration of 0.11 umol/kg of the compound. The format is functional, Artery.
The test system of assay [19] is Felis catus. Briefly: Change in heart rate(beats/min) of the cat on intravenous administration of 0.11 umol/kg of the compound. The format is functional.
Assay [20] deals with Felis catus. The experiment in a line: Compound was tested for the inhibition of cat cardioaccelerator nerve stimulation; […]. Format: functional, organism-based.
For assay [21], the system named is Felis catus. Briefly: Change in heart rate(beats/min) of the cat on intravenous administration of 0.99 umol/kg of the compound. Format: functional.
For assay [22], the system named is Canis familiaris. The experiment in a line: Compound was tested for emesis(active expulsion of fluid or solid matter)in dog at 2 umol/kg sc; No emesis produced. The format is functional, organism-based. To be noted: Canis lupus familiaris.
Assay [23] concerns Felis catus. The experiment in a line: Percentage change in arterial pressure of the cat on intravenous administration of 0.33 umol/kg of the compound. Format: functional, Artery.
Assay [24] concerns Felis catus. Briefly: Change in heart rate(beats/min) of the cat on intravenous administration of 0.36 umol/kg the compound. Format: functional.
In assay [25] the test system is Felis catus. The experiment in a line: Percentage change in arterial pressure of the cat on intravenous administration of 0.36 umol/kg of the compound. Format: functional, Artery.
For assay [26], the system named is Felis catus. Briefly: Percentage change in arterial pressure of the cat on intravenous administration of 1.09 umol/kg of uM/kg of the compound. Format: functional, Artery.
Assay [27] has as its system Felis catus. The experiment in a line: Change in heart rate(beats/min) of the cat on intravenous administration of 1.09 umol/kg of the compound. The format is functional.
Assay [28] concerns Felis catus. The experiment in a line: Compound was tested for the inhibition of cat cardioaccelerator nerve stimulation; Inactive at 2 umol/kg iv. The format is functional, organism-based.
In assay [29] the test system is Felis catus. The experiment in a line: Change in heart rate(beats/min) of the cat on intravenous administration of 0.10 umol/kg of the compound. The format is functional.
The species entered for assay [30] is Canis familiaris. Briefly: Compound was tested for emesis(active expulsion of fluid or solid matter)in dog. The format is functional. To be noted: Canis lupus familiaris.
Assay [31] concerns Felis catus. The experiment in a line: Percentage change in arterial pressure of the cat on intravenous administration of 0.10 umol/kg of the compound. The format is functional, Artery.
The species entered for assay [32] is Canis familiaris. Briefly: Compound was tested for emesis(active expulsion of fluid or solid matter)in dog, activity expressed as ED50. The format is functional. To be noted: Canis lupus familiaris.
Assay [33] has as its system Felis catus. Briefly: Percentage change in arterial pressure of the cat on intravenous administration at 0.008 umol/kg. The format is functional, Artery.
Assay [34] relates to Felis catus. The experiment in a line: Change in heart rate(beats/min) of the cat on intravenous administration at 0.008 umol/kg. Format: functional.
The test system of assay [35] is Felis catus. The experiment in a line: Percentage change in arterial pressure of the cat on intravenous administration of 0.016 umol/kg of the compound. The format is functional, Artery.
The test system of assay [36] is Felis catus. Briefly: Change in heart rate(beats/min) of the cat on intravenous administration of 0.016 umol/kg of the compound. Format: functional.
The species named for assay [37] is Felis catus. Briefly: Compound was tested for the inhibition of cat cardioaccelerator nerve stimulation,. The format is functional.
Assay [38] has as its system Felis catus. Briefly: Percentage change in arterial pressure of the cat on intravenous administration of 0.032 umol/kg of the compound. Format: functional, Artery.
Assay [39] relates to Felis catus. Briefly: %change in arterial pressure of the cat on intravenous administration of 0.038 umol/kg the compound. Format: functional, Artery.
For assay [40], the system named is Felis catus. The experiment in a line: change in heart rate(beats/min) of the cat on intravenous administration 0.038 umol/kg of the compound. Format: functional.
The subject of assay [41] is Felis catus. Briefly: change in heart rate(beats/min) of the cat on intravenous administration of 0.38 umol/kg of the compound. Format: functional.
Assay [42] has as its system Felis catus. The experiment in a line: change in heart rate(beats/min) of the cat on intravenous administration of 0.115 umol/kg of the compound. The format is functional.
Assay [43] concerns Felis catus. Briefly: %change in arterial pressure of the cat on intravenous administration of 0.38 umol/kg of the compound. Format: functional, Artery.
The test system of assay [44] is Felis catus. Briefly: %change in arterial pressure of the cat on intravenous administration 0.115 umol/kg of the compound. The format is functional, Artery.
Assay [45] is filed under the species Felis catus. The experiment in a line: Compound was tested for the inhibition of cat cardioaccelerator nerve stimulation, activity expressed as ED50. Format: functional.

Broadly, the ED50 is the midpoint of the dose-response relation.

As for `Br.CCN(CC)C1CCc2c(O)cc(O)cc2C1` (centres undefined), the results for the Heart rate with Felis catus [1], in the assay with Felis catus [3] and in the assay on Felis catus [6] were -23 beats min-1, -2.1 beats min-1 and -25 beats min-1, respectively. In addition, the figures for the Change with Felis catus [2], in the assay on Felis catus [8] and in the assay with Felis catus [9] were -8.7%, -25% and -23%, respectively. The molecule also had an ED50 in the assay listed under Felis catus [4] of 0.024 µmol/kg. Further, the Increase entry in the assay on Canis familiaris [5] is “inactive”. The Relative potency in the assay listed under Felis catus [7] was determined as 1.4.
In the case of `Br.CN(C)C1CCc2c(O)cc(O)cc2C1` (centres undefined), the values for the Change in the assay on Felis catus [10], in the assay on Felis catus [13] and with Felis catus [14] were 4.1%, 23.2% and 8%, respectively. Further, the Heart rate was 0 beats min-1 in the assay with Felis catus [11], 0.6 beats min-1 with Felis catus [12] and 12.8 beats min-1 with Felis catus [15]. Moreover, it took a dose of 0.021 µmol/kg to reach the 50% effect level in the assay listed under Felis catus [4] (ED50). This molecule also returned a Relative potency in the assay listed under Felis catus [7] of 1.45.
As to `Br.CC(C)NC1CCc2c(O)cc(O)cc2C1` (centres undefined), the Change amounted to 25.2% in the assay with Felis catus [16], 16.9% in the assay with Felis catus [18] and 19.7% in the assay on Felis catus [23]. Further, the Heart rate in the assay on Felis catus [17] stood at 7.7 beats min-1; with Felis catus [19] it was 3.2 beats min-1; with Felis catus [21], 14.4 beats min-1. Moreover, the ED50 result in the assay on Felis catus [20] and with Canis familiaris [22] was “inactive” in each case. For the same molecule, in the assay on Canis familiaris [5], the Increase result was “inactive”.
As for `Br.CNC1CCc2c(O)cc(O)cc2C1` (centres undefined), the Heart rate in the assay on Felis catus [24] turned out to be 26.7 beats min-1; with Felis catus [27], 44 beats min-1. Also, the Change with Felis catus [25] stood at 49.7%; with Felis catus [26], 84.2%. The Increase entry in the assay on Canis familiaris [5] was “inactive”. In addition, the ED50 result in the assay on Canis familiaris [22] was “No emesis produced”. Further, the ED50 result with Felis catus [28] was “inactive”.
`Br.CCNC1CCc2c(O)cc(O)cc2C1` (centres undefined): the results for the Change in the assay with Felis catus [10], with Felis catus [31] and with Felis catus [8] were -6.3%, -19.6% and -18.5%, respectively. Further, the Heart rate in the assay on Felis catus [29] is listed as -6 beats min-1; in the assay on Felis catus [11], -6.6 beats min-1; in the assay with Felis catus [6], -10.6 beats min-1. Further, the ED50 in the assay filed under Canis familiaris [30] is 0.36 µmol/kg; in the assay listed under Felis catus [4], 0.04 µmol/kg. Further, the Increase entry with Canis familiaris [5] is “inactive”. This molecule also displayed a Relative potency in the assay listed under Felis catus [7] of 1.04.
Regarding `CN1CCc2cccc3c2[C@H]1Cc1ccc(O)c(O)c1-3` [APOMORPHINE], the ED50 in the assay filed under Canis familiaris [32] is 0.142 µmol/kg; in the assay filed under Felis catus [37] it was 0.022 µmol/kg. Besides, the Change with Felis catus [33] was -9.9%; in the assay on Felis catus [35] it was -11.5%; in the assay on Felis catus [38] it was -18.2%. Moreover, the Heart rate in the assay with Felis catus [34] was -4.3 beats min-1; in the assay with Felis catus [36] it was -6.5 beats min-1. Besides, the Relative potency in the assay filed under Felis catus [7] was found to be 1.
As for `Br.NC1CCc2c(O)cc(O)cc2C1` (centres undefined), the Change amounted to 19.7% with Felis catus [39], 30.5% in the assay on Felis catus [43] and 21.6% with Felis catus [44]. Further, the Heart rate stood at 0 beats min-1 in the assay with Felis catus [40], 17.6 beats min-1 in the assay on Felis catus [41] and 3.6 beats min-1 in the assay on Felis catus [42]. The Increase result with Canis familiaris [5] was “inactive”. Further, in the assay on Canis familiaris [22], the ED50 result is “No emesis produced”. In the assay on Felis catus [28], the ED50 result is “inactive”.
As for `Br.CCCN(CCC)C1CCc2c(O)cc(O)cc2C1` (centres undefined), the Heart rate is listed as -4.8 beats min-1 in the assay on Felis catus [1], -3.6 beats min-1 in the assay on Felis catus [3] and -5.6 beats min-1 with Felis catus [6]. In addition, the Change with Felis catus [2] is reported as -12.2%; in the assay on Felis catus [8], -27.2%; in the assay with Felis catus [9], -17.2%. In addition, the Increase entry in the assay with Canis familiaris [5] was “inactive”. The Relative potency in the assay listed under Felis catus [7] was found to be 0.95. In addition, the median effective dose (ED50) in the assay listed under Felis catus [45] came out at 0.035 µmol/kg.
